Source: patent US8133849B2, “Herbicidal compounds” (Syngenta Limited, priority 2007, dated 2012)

Experiments:
Assay in all cases: Example B2 herbicidal action, post-emergence, pots in glasshouse, damage score 0-10
Assay type in all cases: in vivo
Conditions in all cases: application post-emergence, rate 1000 g/ha, evaluated after 13 days
Setaria faberi = test system: Setaria faberi
Description: (§1) Seeds of a variety of test species were sown in standard soil in pots. After 8 days cultivation (post-emergence) under controlled conditions in a glasshouse (at 24/16° C., day/night; 14 hours light; 65% humidity), the plants were sprayed with an aqueous spray solution derived from the formulation of the technical active ingredient in acetone/water (50:50) solution containing 0.5% Tween 20 (polyoxyethelyene sorbitan monolaurate, CAS RN 9005-64-5). The test plants were then grown in a glasshouse under controlled conditions in a glasshouse (at 24/16° C., day/night; 14 hours light; 65% humidity) and watered twice daily. After 13 days, the test was evaluated (10=total damage to plant; 0=no damage to plant).

Echinochloa crus-galli = test system: Echinochloa crus-galli
Description: as §1

Amaranthus retroflexus = test system: Amaranthus retroflexus
Description: as §1

Solanum nigrum = test system: Solanum nigrum
Description: as §1

Ipomea hederaceae = test system: Ipomea hederaceae
Description: as §1

| Structure (SMILES) | SETFA damage score (10=total damage to plant; 0=no damage to plant) (Setaria faberi) | ECHCG damage score (10=total damage to plant; 0=no damage to plant) (Echinochloa crus-galli) | AMARE damage score (10=total damage to plant; 0=no damage to plant) (Amaranthus retroflexus) | SOLNI damage score (10=total damage to plant; 0=no damage to plant) (Solanum nigrum) | IPOHE damage score (10=total damage to plant; 0=no damage to plant) (Ipomea hederaceae) |
| --- | --- | --- | --- | --- | --- |
| O=S1(=O)C(c2ccc(C(F)(F)F)cc2C(F)(F)F)=C(O)c2nccnc2N1CC(F)F [Compound D55] | 4 | 5 | 10 | 10 | 10 |
| CC(C)(C)C(=O)OC1=C(c2c(F)cccc2C(F)(F)F)S(=O)(=O)N(CC(F)F)c2nccnc21 [Compound C78] | 3 | 4 | 4 | 6 | 3 |
| CC(C)C(=O)OC1=C(c2ccccc2C#N)S(=O)(=O)N(CC(F)F)c2nccnc21 [Compound C128] | 0 | 0 | 7 | 9 | 8 |
| CCN1c2nccnc2C(OC(=O)C(C)C)=C(c2cc(I)ccc2Cl)S1(=O)=O [Compound C51] | 0 | 1 | 5 | 7 | 6 |
| O=S1(=O)C(c2c(Cl)ccc(Cl)c2C(F)(F)F)=C(O)c2nccnc2N1CC(F)F [Compound D27] | 8 | 7 | 9 | 8 | 7 |
| O=S1(=O)C(c2cc(F)c(Cl)cc2Cl)=C(O)c2nccnc2N1CC(F)F [Compound D25] | 4 | 3 | 10 | 10 | 9 |
| CC(C)(C)C(=O)OC1=C(c2ccc(I)cc2Cl)S(=O)(=O)N(CC(F)F)c2nccnc21 [Compound C141] | 0 | 2 | 7 | 8 | 7 |
| CCN1c2nccnc2C(OC(=O)C(C)(C)C)=C(c2cc(C(F)(F)F)ccc2Br)S1(=O)=O [Compound C69] | 0 | 2 | 4 | 6 | 7 |
| CCN1c2nccnc2C(O)=C(c2cc(C(F)(F)F)ccc2Cl)S1(=O)=O [Compound D15] | 4 | 2 | 9 | 9 | 9 |
| CCN1c2nccnc2C(O)=C(c2ccccc2C(F)(F)F)S1(=O)=O [Compound D33] | 8 | 8 | 9 | 10 | 10 |
| CCSC(=O)OC1=C(c2c(Cl)ccc(Cl)c2Cl)S(=O)(=O)N(CC)c2nccnc21 [Compound C71] | 1 | 6 | 8 | 9 | 10 |
| CCN1c2nccnc2C(O)=C(c2c(C(F)(F)F)cccc2C(F)(F)F)S1(=O)=O [Compound D43] | 4 | 3 | 7 | 8 | 8 |
| CCN1c2nccnc2C(OC(=O)C(C)C)=C(c2ccc(Cl)c(Cl)c2)S1(=O)=O [Compound C26] | 0 | 0 | 9 | 0 | 0 |
| CCOC(=O)OC1=C(c2cc(Cl)ccc2C(F)(F)F)S(=O)(=O)N(CC(F)F)c2nccnc21 [Compound C120] | 9 | 8 | 9 | 9 | 10 |
| CC(C)C(=O)OC1=C(c2cccc(C(F)(F)F)c2Cl)S(=O)(=O)N(CC(F)F)c2nccnc21 [Compound C73] | 2 | 2 | 7 | 7 | 7 |
| COc1cccc(F)c1C1=C(OC(=O)C(C)C)c2nccnc2N(CC(F)F)S1(=O)=O [Compound C137] | 8 | 3 | 7 | 9 | 8 |
| CCSC(=O)OC1=C(c2cc(Cl)ccc2C(F)(F)F)S(=O)(=O)N(CC(F)F)c2nccnc21 [Compound C112] | 6 | 6 | 10 | 10 | 9 |
| CC(C)C(=O)OC1=C(c2c(C(F)(F)F)ccc(Cl)c2Cl)S(=O)(=O)N(CC(F)F)c2nccnc21 [Compound C134] | 4 | 5 | 8 | 8 | 3 |
| CC(C)(C)C(=O)OC1=C(c2cc(-c3cccc(Cl)c3)ccc2Cl)S(=O)(=O)N(CC(F)F)c2nccnc21 [Compound C56] | 0 | 0 | 10 | 2 | 0 |
| C#CCN1c2nccnc2C(O)=C(c2c(Cl)ccc(Cl)c2C(F)(F)F)S1(=O)=O [Compound D45] | 6 | 6 | 8 | 9 | 8 |
| CCN1c2nccnc2C(OC(=O)C(C)(C)C)=C(c2cccc(Cl)c2Cl)S1(=O)=O [Compound C98] | 0 | 0 | 0 | 3 | 0 |
| CCN1c2nccnc2C(O)=C(c2ccccc2SC(F)(F)F)S1(=O)=O [Compound D7] | 0 | 0 | 9 | 5 | 3 |
| CC(C)(C)C(=O)OC1=C(c2c(F)ccc(-c3cccc(Cl)c3)c2Cl)S(=O)(=O)N(CC(F)F)c2nccnc21 [Compound C42, 2,2-dimethylpropionic acid-3-(2,3′-dichloro-4-fluoro-biphenyl-3-yl)-1-(2,2-difluoroethyl)-2,2-dioxo-1,2-dihydro-2-λ-6-thia-1,5,8-triaza-naphthalen-4-yl ester] | 2 | 2 | 2 | 3 | 4 |
| CC(C)(C)C(=O)OC1=C(c2cc(C(F)(F)F)ccc2Br)S(=O)(=O)N(CC(F)F)c2nccnc21 [Compound C80] | 0 | 6 | 10 | 10 | 10 |
| CS(=O)(=O)OC1=C(c2cc(C(F)(F)F)ccc2Cl)S(=O)(=O)N(CC(F)F)c2nccnc21 [Compound C95] | 3 | 6 | 7 | 9 | 10 |
